Counter-ions that a name gives are not always drawn.
Assays:
Assay in all cases: Inhibition of growth activity of tumor cell lines in vitro by MTT method
2780-CP = assay type: cell-based; details: equivalent to 2 mg/ml doxorubicin, drug treatment 24 hours
Method: (§1) The passive solid tumor-targeted anticancer prodrug used in the test was prepared in the test example 1 (equivalent to 2 mg/ml doxorubicin).
(§2) Cell solution (with concentration of 50,000 cells/ml) growing in logarithmic growth phase cultured with RPMI 1640 culture medium was inoculated on a 96 well plate with 0.1 ml/well, and subject to corresponding drug treatment after incubation for 24 hours. After drug treatment for 24 hours, 0.02 ml 5 mg/ml 3-(4,5-dimethylthiazolyl-2)-2,5-diphenyltetrazolium bromide (MTT) was added for treatment for 4 hours, then culture solution was removed, 0.15 ml dimethylsulfoxide (DMSO) was added, and light absorption value was determined at 570 nm by a microplate reader.

2780-S = assay type: cell-based; details: equivalent to 2 mg/ml doxorubicin, drug treatment 24 hours
Method: as §1, §2

A549 = assay type: cell-based; details: Homo sapiens; A549, doxorubicin concentration 2 mg/ml, drug treatment 24 hours; read-out: Inhibition rate (%)
Method: as §1, §2

NCI-H446 = assay type: cell-based; details: Homo sapiens; NCI-H446, doxorubicin concentration 2 mg/ml, drug treatment 24 hours; read-out: Inhibition rate (%)
Method: as §1, §2

B16 = assay type: cell-based, mouse; details: B16, equivalent to 2 mg/ml doxorubicin, drug treatment 24 hours
Method: as §1, §2

## COc1cccc2c1C(=O)c1c(O)c3c(c(O)c1C2=O)C[C@@](O)(C(=O)CO)C[C@@H]3O[C@H]1C[C@H](N)[C@H](O)[C@H](C)O1 [doxorubicin hydrochloride]
2780-CP
  Inhibition rate (%): 49.3%
2780-S
  Inhibition rate (%): 52.8%
A549
  inhibition at 2000 µg/mL: 67.6%
NCI-H446
  inhibition at 2000 µg/mL: 63.3%
B16
  Inhibition rate (%): 85.9%

— patent US20120244193A1, “PASSIVE SOLID TUMOR TARGETING ANTICANCER PRODRUG AND PREPARATION METHOD THEREOF” (priority 2009, published 2012)
